Assay results from patent publication US20150174158A1, “[…] NITRIC OXIDE FOR TREATING RESPIRATORY DISEASES” (Advanced Inhalation Therapies (AIT) Ltd., priority 2012, published 2015).

Assays:
[1] = tested on: human respiratory syncytial virus (rgRSV30); assay: RSV plaque assay after 30 min exposure to 160 ppm gNO; assay type: cell-based; conditions: single 30 min exposure to 160 ppm gNO; starting 500 PFU
Description: The efficacy of treating viral infection by respiratory syncytial virus by the methods presented herein was tested by exposure for 30 minutes of human respiratory syncytial virus (rgRSV30) to a gas mixture containing 160 ppm nitric oxide, using standard plaque assay as described hereinabove.
FIGS. 3A-D present the data obtained in the experiment using tissue culture samples harboring human rgRSV30, coupled to a green fluorescent protein, wherein the control experiment the samples were exposed to a ambient air (data not shown), and the tested samples having a starting viral level of 2000 PFU (FIG. 3A), 1000 PFU (FIG. 3B) and 500 PFU (FIG. 3C), were exposed to 160 ppm gNO for 30 minutes, whereas FIG. 3D presents a comparative bar plot comparing the control to test results.

[2] = Phase I safety study: pulmonary function tests; assay type: in vivo, human
Description: After obtaining informed consent, treatment was initiated within 5 days of enrollment. Subjects were housed in a hospital ward and received 160 ppm gNO for 30 minutes every four hours (Q4h), five times a day, for five consecutive days by inhalation. Subjects returned for follow-up evaluations 3, 7 and 21 days after the final gNO administration. Subject safety was determined by monitoring vital signs, methemoglobin levels, lung function, blood chemistry, hematology, prothrombin time, inflammatory cytokine/chemokines levels and endothelial activation. These parameters were compared to baseline and at various time-points during and after gNO administration.
Subjects underwent full pulmonary function tests (PFT), including lung diffusing capacity (DLCO) by a trained technician utilizing a calibrated pulmonary function system (Jaeger MasterScreen, VIASYS Healthcare, USA) on screening and days 2, 8, 12 and 26. Spirometry test (Microloop by Micro Medical, England) was performed on days 1, 3 and 4. Effect of gNO on lung function and DLCO was determined by changes from baseline, treatment days and follow up days. […]

[3] = tested on: TNF, IL-6, IL-8, IL-10, IL-1b and IL-12p70; assay: Phase I safety study: plasma cytokines by cytometric bead array; assay type: in vivo, human; conditions: vs baseline, all sampling time points
From the text: Hematological assessment included a complete blood count and differentials (hemoglobin, hematocrit, red blood cell count, white blood cell count, white blood cell differential, and platelet count) were obtained in order to monitor blood chemistry, hematology and inflammation measurements. The blood chemistry profile included serum creatinine, and liver function tests such as aspartate aminotransferase (AST) serum glutamic oxaloacetic transaminase (SGOT), alkaline phosphatase, and gamma-glutamyl transferase (GGT). The effect of gNO on coagulation was determined by the prothrombin time (PT) and its derived measures of prothrombin ratio (PR) and international normalized ratio (INR). Heparinized plasma was collected at baseline and on days 1, 2, 4, and 5 of gNO administration, and on follow-up days 3, 7 and 21 and frozen at −80° C. Plasma cytokine levels were assessed using the human inflammation cytokine bead array kit (BD Bioscience, Canada). Plasma levels of angiopoietin Ang-1 and Ang-2 were determined by ELISA (R&D Systems, USA).
To assess whether gNO inhalation may cause inflammation or endothelial activation cytokines and the vascular endothelium activation factors Ang-1 and Ang-2 were quantified in peripheral plasma at baseline at various time points thereafter. […]

S. aureus (ATCC) = conditions: 200 ppm gNO; saline; cited from earlier work
P. aeruginosa (ATCC) = conditions: 200 ppm gNO; saline; cited from earlier work
Klebsiella sp. #2 = conditions: 200 ppm gNO; saline; cited from earlier work
S. maltophilia = conditions: 200 ppm gNO; saline; cited from earlier work
Enterobacter sp. = conditions: 200 ppm gNO; saline; cited from earlier work
[4] = tested on: P. aeruginosa and S. aureus; conditions: cited from earlier work
[5] = tested on: influenza A/victoria/H3N2; conditions: 160 ppm gNO, cited from earlier work
[6] = tested on: five planktonic species of methicillin resistant S. aureous (MRSA); conditions: 1,600 ppm hours of gNO; cited from earlier work
broad range of microbes = conditions: gNO at 160-200 ppm; in vitro, ex vivo and in animal models; cited from earlier work
[7] = tested on: Pseudomonas aeruginosa pneumonia; conditions: 160 ppm gNO, intermittent 30 minute exposures; cited from earlier work

[N]=O [gNO, nitric oxide]
viral viability [1]: substantially nullified | pulmonary function tests, abnormalities ([2]; during and after gNO administration): did not reveal any abnormalities | DLCO, FVC, TLC and RV ([2]; vs baseline): did not change from baseline | FEV1 and maximum mid-expiratory flow (MMEF) ([2]; vs baseline during the course of the study): did not differ from baseline | plasma cytokine levels [3]: unaffected | LD100 (S. aureus (ATCC)): 4 h | Latent Period (S. aureus (ATCC)): 3 h | −2.5 Log10 (S. aureus (ATCC)): 3.3 hours | LD100 (P. aeruginosa (ATCC)): 3 h | Latent Period (P. aeruginosa (ATCC)): 1 h | −2.5 Log10 (P. aeruginosa (ATCC)): 2.1 hours | LD100 (Klebsiella sp. #2): 5 h | Latent Period (Klebsiella sp. #2): 2 h | −2.5 Log10 (Klebsiella sp. #2): 4.1 hours | LD100 (S. maltophilia): 4 h | Latent Period (S. maltophilia): 2 h | −2.5 Log10 (S. maltophilia): 2.8 hours | LD100 (Enterobacter sp.): 6 h | Latent Period (Enterobacter sp.): 4 h | −2.5 Log10 (Enterobacter sp.): 5.3 hours | survival (downward bactericidal trend) ([4]; 50-160 ppm gNO vs medical air, agar plates): 5-10% | time required to achieve >90% reduction of colony formation ([4]; gNO greater than 120 ppm): 8 to 12 h | reduction of colony formation ([4]; levels of gNO greater than 120 ppm, agar plates): greater than 90% | infectivity (plaque formation) [5]: capable of reducing the infectivity | anti-viral effect, intermittent vs single exposure ([5]; three 30 minute treatments Q4h vs one 30 minute dose): more evident in the intermittent form of exposure | population of planktonic MRSA strains [6]: A reduction in the population | antimicrobial effects (broad range of microbes): potent antimicrobial effects | pulmonary bioburden and leukocyte infiltration [7]: effective to reduce the pulmonary bioburden and leukocyte infiltration
